Earlier results on one molecule are cited in patent publication EP3331513B1, “HYDROALCOHOLIC SOLUTIONS COLOURED WITH CHLORHEXIDINE, METHODS FOR THE PRODUCTION THEREOF, AND USES OF SAME” (Université Claude Bernard Lyon I, priority 2015, dated 2017).

Turning to `[H]/N=C(\N/C(=N/[H])NCCCCCCNC(=N)NC(=N)Nc1ccc(Cl)cc1)Nc1ccc(Cl)cc1` [digluconate de chlorhexidine], the “solubilité dans les alcools” value (alcools primaires en C2 et C3, notamment éthanol) was “assez soluble”. The “solubilité dans l'eau” value (eau) is on record as “miscible à l'eau”.
